Data published in patent US7316814B2, “Cosmetic composition comprising a silicone-containing compound and a fatty acid ester” (L'Oreal, priority 1995, dated 2008).

Test: Maximum mass content of ester added to a gum-in-silicone-oil solution without precipitation of the gum
Type: physicochemical
Details: 25° C.; 13% gum solution in polydimethylsiloxane (Q2-1403)
Method: The maximum mass content of ester which may be added, at 25° C., to a solution of gum in a silicone oil without observing precipitation of the gum was measured.

Molecule | Maximum mass content of ester which may be added without observing precipitation of the gum
CCCCCCCCC(CCCCCC)COC(=O)CCCCCC(C)C (stereo not shown) [2-hexyldecyl isononanoate] | 72%
CC(C)CCCCCCCCCCCCCCCOC(=O)CCCCCC(C)C [Isostearyl isononanoate] | 60%
CC(C)CCCCCCCCCCCCCCCOC(=O)C(C)(C)C [Isostearyl neopentanoate] | 68%
Octyldodecyl neopentanoate | to at least 1000%
